Results on 17 compounds are retold here after patent publication EP4321514B1, “COMPOUND HAVING ALK INHIBITORY ACTIVITY, PREPARATION METHOD THEREFOR AND USE THEREOF” (CGeneTech (Suzhou, China) Co., Ltd., priority 2021, dated 2022).

In one test the target is T1, ALK kinase (Homo sapiens, UniProt Q9UM73).
T1 construct: purchased Thermo Scientific
Briefly: ALK kinase inhibition test. The test is classed as biochemical. To be noted: 0.4 ng/well ALK kinase, 5 µM ATP, fluorescence 665 nm/615 nm. On the procedure: The inhibitory activity of the compound in the present application on ALK kinase will be determined through in vitro tests, which can be represented by IC50 value.
4 µL of the diluted solution of the test compound and 2 µL of 0.4 ng/well ALK kinase solution (Thermo Scientific) were added into reaction wells in turn, incubated for 10 min at room temperature, then 4 µL of 0.7 µM biotin-labeled tyrosine kinase substrate and 5 µM ATP solution were added to start the kinase reaction.
Software Graphpad Prism 6 was used to fit an IC50 curve and calculate an IC50 value.

Test [1] has as its system human anaplastic large cell lymphoma cell Karpas 299. Briefly: ALK gene fusion cell proliferation inhibition test (CCK-8). The test is classed as cell-based. To be noted: 72 hours incubation, CCK-8, absorbance at 450 nm. As to the method: The 96-well culture plate was placed in a 5 % carbon dioxide incubator at 37 °C to be cultured overnight. A test compound was formulated into a 10 mM storage solution with DMSO, and the 10mM storage solution was gradually diluted with DMSO at a dilution ration of 1:4 to obtain 9 concentration gradients of solutions of the test compound. The test compound was diluted with culture medium to 5 times the set final concentration of corresponding action, and the diluted solution of the test compound was added at 25 µL/well to corresponding cell wells according to the set compound layout, and then incubated in a 5 % carbon dioxide incubator at 37 °C for 72 hours. After 72 hours, 10 µL of CCK-8 was added into a cell culture medium, and the culture solution was sucked from adherent cells, then a freshly prepared CCK-8 detection solution was added and the cells were incubated in a 37 °C incubator for 1-4 hours. The absorbance at 450 nm wavelength on the SpectraMax i3X Microplate Reader was measured after gently shaking, with the absorbance at 650 nm as a reference.

T1 sequence (Q9UM73 19-1620): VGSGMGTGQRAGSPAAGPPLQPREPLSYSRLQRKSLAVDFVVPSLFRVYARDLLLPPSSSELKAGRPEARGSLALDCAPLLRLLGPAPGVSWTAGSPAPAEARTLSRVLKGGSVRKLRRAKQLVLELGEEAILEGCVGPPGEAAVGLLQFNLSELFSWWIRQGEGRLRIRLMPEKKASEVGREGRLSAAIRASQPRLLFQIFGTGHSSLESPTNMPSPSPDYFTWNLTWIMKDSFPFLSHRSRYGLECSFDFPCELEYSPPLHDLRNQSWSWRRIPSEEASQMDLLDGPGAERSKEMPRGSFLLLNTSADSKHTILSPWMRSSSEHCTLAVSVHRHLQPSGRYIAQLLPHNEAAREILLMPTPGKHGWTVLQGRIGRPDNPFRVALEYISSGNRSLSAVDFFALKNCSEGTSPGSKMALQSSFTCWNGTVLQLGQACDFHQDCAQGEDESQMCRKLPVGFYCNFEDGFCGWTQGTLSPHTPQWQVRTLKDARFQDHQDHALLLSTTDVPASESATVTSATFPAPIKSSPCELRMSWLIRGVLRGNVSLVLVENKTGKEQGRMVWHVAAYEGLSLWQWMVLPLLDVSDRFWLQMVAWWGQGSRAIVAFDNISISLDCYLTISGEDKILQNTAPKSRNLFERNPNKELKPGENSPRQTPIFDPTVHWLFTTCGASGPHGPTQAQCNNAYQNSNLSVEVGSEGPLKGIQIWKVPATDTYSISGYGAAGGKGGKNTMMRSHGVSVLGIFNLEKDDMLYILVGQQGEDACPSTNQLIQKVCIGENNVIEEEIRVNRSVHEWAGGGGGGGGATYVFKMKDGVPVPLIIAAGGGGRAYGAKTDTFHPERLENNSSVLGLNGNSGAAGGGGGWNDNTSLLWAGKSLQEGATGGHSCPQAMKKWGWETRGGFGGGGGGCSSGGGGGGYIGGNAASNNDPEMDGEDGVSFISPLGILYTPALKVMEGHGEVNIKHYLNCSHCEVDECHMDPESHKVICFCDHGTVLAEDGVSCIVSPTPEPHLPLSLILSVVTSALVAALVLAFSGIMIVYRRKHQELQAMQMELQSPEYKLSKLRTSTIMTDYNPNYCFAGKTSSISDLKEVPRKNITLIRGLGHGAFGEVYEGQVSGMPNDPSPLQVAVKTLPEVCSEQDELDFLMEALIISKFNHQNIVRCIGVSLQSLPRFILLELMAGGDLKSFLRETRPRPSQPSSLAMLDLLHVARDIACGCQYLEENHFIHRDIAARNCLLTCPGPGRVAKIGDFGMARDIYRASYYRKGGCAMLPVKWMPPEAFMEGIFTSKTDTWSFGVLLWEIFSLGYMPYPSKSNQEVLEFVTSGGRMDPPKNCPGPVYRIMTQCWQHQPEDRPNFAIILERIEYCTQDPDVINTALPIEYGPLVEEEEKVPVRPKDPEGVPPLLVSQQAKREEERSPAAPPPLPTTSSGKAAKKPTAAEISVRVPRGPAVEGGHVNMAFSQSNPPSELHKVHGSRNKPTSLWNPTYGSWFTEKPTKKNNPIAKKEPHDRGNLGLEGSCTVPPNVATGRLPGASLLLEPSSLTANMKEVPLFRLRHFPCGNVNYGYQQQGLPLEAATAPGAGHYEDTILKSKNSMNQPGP

`C#Cc1ccc2c3c([nH]c2c1)C(C)(C)c1cc(N2CCC(N4CCOCC4)CC2)c(C#N)cc1C3=O` [Example E12, 3-ethynyl-6,6-dimethyl-8-(4-morpholinopiperidin-1-yl)-11-oxo-6,11-dihydro-5H-benzo[b]carbazole-9-carbonitrile]: the results for the IC50 (against ALK kinase; in test [1]) were 6.78 nM and 8.71 nM, respectively.
On to `C#Cc1ccc2c3c([nH]c2c1)C(C)(C)c1cc(N2CCN(C)CC2)c(C#N)cc1C3=O` [Example E13, 3-ethynyl-6,6-dimethyl-8-(4-methylpiperazin-1-yl)-11-oxo-6,11-dihydro-5H-benzo[b]carbazole-9-carbonitrile], for which the IC50 against ALK kinase turned out to be 5.76 nM; in test [1], 7.52 nM.
On to `C#Cc1ccc2c3c([nH]c2c1)C(C)(C)c1cc(N2CCC(N4CCCC4)CC2)c(C#N)cc1C3=O` [Example E14, 3-ethynyl-6,6-dimethyl-11-oxo-8-(4-(pyrrolidin-1-yl)piperidin-1-yl)-6,11-dihydro-5H-benzo[b]car bazole-9-carbonitrile], for which the IC50 was 6.51 nM against ALK kinase and 11.4 nM in test [1].
For `C#Cc1ccc2c3c([nH]c2c1)C(C)(C)c1cc(N2CCC(N(C)C)CC2)c(C#N)cc1C3=O` [Example E15, 8-(4-(dimethylamino)piperidin-1-yl)-3-ethynyl-6,6-dimethyl-11-oxo-6,11-dihydro-5H-benzo[b]car bazole-9-carbonitrile], the figures for the IC50 (against ALK kinase; in test [1]) were 4.62 nM and 8.29 nM, respectively.
With `C#Cc1ccc2c3c([nH]c2c1)C(C)(C)c1cc(N2CCC(N4CCN(C)CC4)CC2)c(C#N)cc1C3=O` [Example E16, 3-ethynyl-6,6-dimethyl-8-(4-(4-methylpiperazin-1-yl)piperidin-1-yl)-11-oxo-6,11-dihydro-5H-ben zo[b]carbazole-9-carbonitrile], the IC50 against ALK kinase was found to be 5.7 nM; in test [1], 3.27 nM.
For the compound `C#Cc1ccc2c3c([nH]c2c1)C(C)(C)c1cc(N2CCN(C4CC4)CC2)c(C#N)cc1C3=O` [Example E17, 8-(4-cyclopropylpiperazin-1-yl)-3-ethynyl-6,6-dimethyl-11-oxo-6,11-dihydro-5H-benzo[b]carbazole-9-carbonitrile], the figures for the IC50 (against ALK kinase; in test [1]) were 49 nM and 33.2 nM, respectively.
For the compound `C#Cc1ccc2c3c([nH]c2c1)C(C)(C)c1cc(N2CCC(N4CCN(C5CC5)CC4)CC2)c(C#N)cc1C3=O` [Example E18, 8-(4-(4-cyclopropylpiperazin-1-yl)piperidin-1-yl)-3-ethynyl-6,6-dimethyl-11-oxo-6,11-dihydro-5 H-benzo[b]carbazole-9-carbonitrile], the figures for the IC50 (at ALK kinase; in test [1]) were 10.3 nM and 1.71 nM, respectively.
Consider `C#Cc1ccc2c3c([nH]c2c1)C(C)(C)c1cc(N2CCN(C)CC2)c(Cl)cc1C3=O` [Example E19, 9-chloro-3-ethynyl-6,6-dimethyl-8-(4-methylpiperazin-1-yl)-5,6-dihydro-11H-benzo[b]carbazol-1 1-one], for which the results for the IC50 (against ALK kinase; in test [1]) were 3.73 nM and 11.7 nM, respectively.
For `C#Cc1ccc2c3c([nH]c2c1)C(C)(C)c1cc(N2CCN(C4CC4)CC2)c(Cl)cc1C3=O` [Example E20, 9-chloro-8-(4-cyclopropylpiperazin-1-yl)-3-ethynyl-6,6-dimethyl-5,6-dihydro-11H-benzo[b]carbazol-11-one] the same measures were 40.1 nM and 55.9 nM.
Regarding `C#Cc1ccc2c3c([nH]c2c1)C(C)(C)c1cc(N2CCC(N(C)C)CC2)c(Cl)cc1C3=O` [Example E21, 9-chloro-8-(4-(dimethylamino)piperidin-1-yl)-3-ethynyl-6,6-dimethyl-5,6-dihydro-11H-benzo[b]c arbazol-11-one], the values for the IC50 (on ALK kinase; in test [1]) were 12.7 nM and 10.4 nM, respectively.
Regarding `C#Cc1ccc2c3c([nH]c2c1)C(C)(C)c1cc(N2CCC(N4CCN(C)CC4)CC2)c(Cl)cc1C3=O` [Example E22, 9-chloro-3-ethynyl-6,6-dimethyl-8-(4-(4-methylpiperazin-1-yl)piperidin-1-yl)-5,6-dihydro-11H-be nzo[b]carbazol-11-one], the results for the IC50 (on ALK kinase; in test [1]) were 13.5 nM and 4.67 nM, respectively.
On to `C#Cc1ccc2c3c([nH]c2c1)C(C)(C)c1cc(N2CCC(N4CCOCC4)CC2)c(Cl)cc1C3=O` [Example E23, 9-chloro-3-ethynyl-6,6-dimethyl-8-(4-morpholinopiperidin-1-yl)-5,6-dihydro-11H-benzo[b]carbazol-11-one], for which the results for the half-inhibitory concentration (IC50) (against ALK kinase; in test [1]) were 2.61 nM and 22.2 nM, respectively.
Take `C#Cc1ccc2c3c([nH]c2c1)C(C)(C)c1cc(N2CCNCC2)c(Cl)cc1C3=O` [Example E24, 9-chloro-3-ethynyl-6,6-dimethyl-8-(piperazin-1-yl)-5,6-dihydro-11H-benzo[b]carbazol-11-one]: the 50% inhibitory concentration (IC50) was 3.29 nM against ALK kinase and 18.2 nM in test [1].
Regarding `C#Cc1ccc2c3c([nH]c2c1)C(C)(C)c1cc(N2CCC(N4CCC4)CC2)c(Cl)cc1C3=O` [Example E25, 8-(4-(azetidin-1-yl)piperidin-1-yl)-9-chloro-3-ethynyl-6,6-dimethyl-5,6-dihydro-11H-benzo[b]car bazol-11-one], the results for the IC50 (against ALK kinase; in test [1]) were 49.9 nM and 53 nM, respectively.
With `CCc1cc2c(cc1N1CCC(N3CCOCC3)CC1)C(C)(C)c1[nH]c3cc(C#CC4CC4)ccc3c1C2=O` [Example E26, 3-(cyclopropylethynyl)-9-ethyl-6,6-dimethyl-8-(4-morpholinopiperidin-1-yl)-5,6-dihydro-11H-be nzo[b]carbazol-11-one], the IC50 against ALK kinase was 38.4 nM; in test [1], 20.6 nM.
As for `CC#Cc1ccc2c3c([nH]c2c1)C(C)(C)c1cc(N2CCC(N4CCOCC4)CC2)c(CC)cc1C3=O` [Example E27, 9-ethyl-6,6-dimethyl-8-(4-morpholinopiperidin-1-yl)-3-(prop-1-yn-1-yl)-5,6-dihydro-11H-benzo[b]carbazol-11-one], the 50% inhibitory concentration (IC50) on ALK kinase turned out to be 10.2 nM; in test [1], 110 nM.
On to `C#Cc1ccc2c3c([nH]c2c1)C(C)(C)c1cc(N2CCC(NC)CC2)c(C#N)cc1C3=O` [Example E28, 3-ethynyl-6,6-dimethyl-8-(4-(methylamino)piperidin-1-yl)-11-oxo-6,11-dihydro-5H-benzo[b]carb azole-9-carbonitrile], for which the IC50 amounted to 2.62 nM at ALK kinase and 5 nM in test [1].

The IC50 is the point on the concentration scale where inhibition reaches its midpoint.
